# Structures can show the parent of a compound that is named as a salt. Where two headings read alike, the source gives them in different places.
# Legend:
# rat primary astrocytes = experiment: MTT cell viability assay in rat primary astrocytes; assay type: cell-based, Sprague-Dawley rat; details: 24 h
# Text: Sprague-Dawley male and female rats were utilized to obtain cultures of sex-specific primary cortical cells. All animal experiments were approved by the Institutional Animal Care and Uses Committee (IACUC) at the University of Iowa. The rat pups were sex-segregated as males and females based on visual examination and later confirmed by the presence of a Y chromosome-specific gene Sry by PCR. The gene for beta-actin, Actb, was used as a control. The primer sequences used for PCR amplification were as described,[35] which yielded a 317-bp product for Sry and a 220-bp product for Actb. Both products were confirmed by gel electrophoresis on a 1% agarose gel after PCR amplification was completed. As previously described, with modifications, astrocytes were obtained from the cortex of PND2/3 rats.[36] Briefly, cortical sections were dissociated in minimal essential medium with Earle’s salts for suspension cultures (S-MEM; Life Technologies) with 1% penicillin/streptomycin and 1.5 U/mL dispase (Life Technologies) for 60 min, aliquoting and replacing dissociation media every 10 min, adding 8000 U/mL DNase I in water after the first digestion. The enzymatic digestion was stopped by adding a growth medium containing minimal essential medium with Earle’s salts (MEM; Life Technologies) with 1% P/S and 10% heat-inactivated horse serum. After digestion, cells were centrifuged for 10 min at 1000 × g at 4 °C, and the pellet was resuspended in a growth medium. Cells were assessed for count and viability and then plated at 10,000 viable cells/cm^2 in T75 flasks. Flasks were shaken after 24 h, and media was replaced to begin removing microglia and then repeated every 2–3 days. Flow cytometry utilizing GFAP and IBA1 antibodies was run at passage 2 to confirm the elimination of microglia from the primary astrocyte cultures. The rat primary astrocyte cultures were maintained in MEM with 1% P/S and 10% heat-inactivated horse serum at 37 °C under humidified conditions at 5% CO2. The detailed protocol for astrocyte isolation of sex segregated rat pups and further validation of purity of astrocyte cultures is published and can be accessed at: dx.doi.org/10.17504/protocols.io.e6nvwjry7lmk/v1.
# (§1) All the LC-PCB exposures or their corresponding human-relevant metabolite exposures were performed in serum-free, phenol-red-free cell culture media suited for the respective cell type described above. The exposures were within a concentration range of 0.5–50 μM for 24 h at 37 °C under humidified conditions at 5% CO2. DMSO was used as a negative control. All stock solutions of the test compounds were prepared in DMSO. The final DMSO concentration was maintained at <0.5% for all the exposures. After the 24 h incubation, either an MTT assay for cell viability or an LDH assay for cytotoxicity was employed.
# (§2) C6 or primary cells were seeded in 24-well cell culture plates (Corning Inc., Corning, NY, U.S.A; Cat No. 3526) and allowed to grow until 80–90% confluent. The cells were then exposed to test compounds, as described above (0, 0.5, 1, 5, 10, 20, and 50 μM). The MTT assay was performed, as described[38] with modifications. After 24 h of exposure, the media was removed, and cells were washed with HBSS once. Two hundred microliters of 0.5 mg/mL MTT solution prepared in HBSS/Glucose (Glucose used at 1 mg/mL HBSS) was added to each well of the 24-well plate. The cells were incubated with the MTT solution for 45 min to 1 h at 37 °C under humidified conditions at 5% CO2. After incubation, the MTT solution was removed, and the water-insoluble purple formazan product was dissolved in 400 μL DMSO. This DMSO solution was added to a clear, flat bottom 96-well polystyrene plate (Cat. No. 12-565-501, Thermo Fisher Scientific, Waltham, MA. U.S.A.) in duplicate and read at 570 and 650 nm using a microplate reader (SpectraMax 190, Molecular Devices, San Jose, CA. U.S.A.). The mean percent cell viability was calculated as follows: [drawing 1]
# C6 cells = experiment: MTT cell viability assay in C6 cells; assay type: cell-based; details: 0.5 to 50 μM; for toxicity (cell viability) in the tested concentration range: C6 cells, 24 h; for IC50: Rattus norvegicus, C6 cell line, 24 h exposure
# Method: C6 cells (CCL-107, Lot No. 63821786) were purchased from the American Type Culture Collection (ATCC, Manassas, VA, U.S.A.). This cell line has been previously used as an in vitro astrocyte model for toxicity[22] and is morphologically and functionally similar to primary astrocyte cultures.[34] The C6 cells were grown and maintained at 37 °C under humidified conditions at 5% CO2 in DMEM/F12 medium supplemented with 10% FBS and 1% P/S. The cells were maintained at a seeding density of 1 × 10^6 cells in 100 mm tissue culture-treated dishes (Cat. No. 430167, Corning, Somerville, MA, U.S.A.). All the experiments for the current study utilizing C6 cells have been performed within passage 2 and passage 20.
# as §1, §2
# [1] = MTT cell viability assay in mouse primary glial cells; assay type: cell-based, C57BL/6 mouse; details: mouse, primary mixed glial cells, MTT, primary glial cells from C57BL/6 mice
# Method: (§3) Primary glial cell cultures obtained from PND1-3 C57BL/6 mice pups were provided by Dr. Tjalkens at Colorado State University, Fort Collins, CO, U.S.A. The primary astroglial cell cultures were grown and maintained, as described previously in MEM medium supplemented with 10% FBS and 1% P/S.[37]
# as §1, §2
# [2] = system: mouse primary mixed glial cells; experiment: as above; assay type: cell-based, C57BL/6 mouse; details: Glial cell; mouse primary mixed glial cells (about 80% astrocytes, 20% microglia), MTT assay, 24 h
# Method: as §3, §1, §2
# [3] = Astrocyte, sex segregated rat primary astrocytes, female, read-out: IC50 females
# [4] = Astrocyte, sex segregated rat primary astrocytes, male, read-out: IC50 males
# [5] = read-out: sulfated metabolite IC50
# [6] = read-out: hydroxylated metabolite IC50
compound,measurement,setting,value
O=S(=O)(O)Oc1cc(Cl)c(-c2cc(Cl)ccc2Cl)cc1Cl [4-OH-PCB52 sulfate],IC50,rat primary astrocytes; [3],6.9 µM
same,IC50,rat primary astrocytes; [4],7 µM
same,toxicity (cell viability) in the tested concentration range,C6 cells,reduced cell viability
same,IC50,C6 cells; [5],8.4 µM
same,"viability at 24 h, 5 µM",[1],> 150%
same,"viability at 24 h, 10 μM",[1]; next higher concentration after 5 μM,20%
Oc1cc(Cl)c(-c2cc(Cl)ccc2Cl)cc1Cl [4-OH-PCB52],IC50,rat primary astrocytes; [3],4.4 µM
same,IC50,rat primary astrocytes; [4],4.9 µM
same,IC50,C6 cells; [6],2.2 µM
same,"viability at 24 h, 1 µM",[1]; 1 μM,150%
same,"viability at 24 h, 5 µM",[1],~0%
"Clc1ccc(-c2ccccc2)cc1 [PCB3, 4-chlorobiphenyl]",toxicity (cell viability) in the tested concentration range,C6 cells,non-toxic
same,IC50,C6 cells; read-out: parent compound IC50,> 50 µM
"Clc1cccc(-c2cccc(Cl)c2)c1 [PCB11, 3,3′-dichlorobiphenyl]",toxicity (cell viability) in the tested concentration range,C6 cells,non-toxic
same,IC50,C6 cells; read-out: parent compound IC50,> 50 µM
"Clc1cccc(-c2ccc(Cl)cc2Cl)c1 [PCB25, 2,3′,4-trichlorobiphenyl]",IC50,C6 cells; read-out: parent compound IC50,10 µM
"Clc1ccc(-c2ccc(Cl)cc2Cl)cc1 [PCB28, 2,4,4′-trichlorobiphenyl]",IC50,C6 cells; read-out: parent compound IC50,~25 µM
"Clc1ccc(Cl)c(-c2cc(Cl)ccc2Cl)c1 [PCB52, 2,2′,5,5′-tetrachlorobiphenyl]",IC50,rat primary astrocytes; [3],14.4 µM
same,IC50,rat primary astrocytes; [4],15.3 µM
same,IC50,"rat primary astrocytes; mixed rat primary astrocyte cultures (>95% astrocytes), read-out: IC50",11.8 µM
same,IC50,C6 cells; read-out: parent compound IC50,8.8 µM
same,IC50,[2],9.8 µM
Oc1ccc(-c2ccc(Cl)cc2)cc1 [PCB 3 hydroxylated metabolite],IC50,C6 cells; [6],21.4 µM
O=S(=O)(O)Oc1ccc(-c2ccc(Cl)cc2)cc1 [PCB 3 sulfated metabolite],IC50,C6 cells; [5],> 50 µM
Oc1ccc(-c2cccc(Cl)c2)cc1Cl [PCB 11 hydroxylated metabolite],IC50,C6 cells; [6],13 µM
O=S(=O)(O)Oc1ccc(-c2cccc(Cl)c2)cc1Cl [PCB 11 sulfated metabolite],IC50,C6 cells; [5],> 50 µM
Oc1ccc(-c2ccc(Cl)cc2Cl)cc1Cl [PCB 25 hydroxylated metabolite],IC50,C6 cells; [6],5.3 µM
O=S(=O)(O)Oc1ccc(-c2ccc(Cl)cc2Cl)cc1Cl [PCB 25 sulfated metabolite],IC50,C6 cells; [5],> 50 µM

# Reference: article PMC10283044, “Structure–Activity Relationship of Lower Chlorinated Biphenyls and Their Human-Relevant Metabolites for Astrocyte Toxicity” (Chemical Research in Toxicology, 2023)
